Reference: ChEMBL document CHEMBL2016451, “Antimycobacterial activity of bisbenzylisoquinoline alkaloids from Tiliacora triandra against multidrug-resistant isolates of Mycobacterium tuberculosis” (Bioorg Med Chem Lett, 2012)
In brackets after ≈: the same amount, converted by molar mass.

Legend:
Type in all cases: functional
[1] = system: Mycobacterium tuberculosis; assay: Antimycobacterial activity against ethionamide-resistant Mycobacterium tuberculosis H37Rv ATCC 35830 after 16 to 24 hrs by alamar blue assay
[2] = system: Mycobacterium tuberculosis; assay: Antimycobacterial activity against pyrazinamide-resistant Mycobacterium tuberculosis H37Rv ATCC 35828 after 16 to 24 hrs by alamar blue assay
[3] = system: Mycobacterium tuberculosis; assay: Antimycobacterial activity against isoniazid-, rifampin-, ofloxacin-, ethambutol-, streptomycin-resistant Mycobacterium tuberculosis after 16 to 24 hrs by alamar blue assay
[4] = system: Mycobacterium tuberculosis; assay: Antimycobacterial activity against isoniazid-, rifampin-, ethambutol-resistant Mycobacterium tuberculosis after 16 to 24 hrs by alamar blue assay
[5] = system: Mycobacterium tuberculosis; assay: Antimycobacterial activity against isoniazid-, rifampin-resistant Mycobacterium tuberculosis after 16 to 24 hrs by alamar blue assay
[6] = system: Mycobacterium tuberculosis; assay: Antimycobacterial activity against isoniazid-, rifampin-, ofloxacin-, streptomycin-resistant Mycobacterium tuberculosis after 16 to 24 hrs by alamar blue assay
[7] = system: Mycobacterium tuberculosis; assay: Antimycobacterial activity against isoniazid-, rifampin-, streptomycin-, ethambutol-resistant Mycobacterium tuberculosis after 16 to 24 hrs by alamar blue assay
[8] = system: Mycobacterium tuberculosis; assay: Antimycobacterial activity against isoniazid-, rifampin-, ofloxacin-, ethambutol-resistant Mycobacterium tuberculosis after 16 to 24 hrs by alamar blue assay
[9] = system: Mycobacterium tuberculosis; assay: Antimycobacterial activity against isoniazid-, rifampin-, streptomycin-resistant Mycobacterium tuberculosis after 16 to 24 hrs by alamar blue assay

**Q.** How did the MIC [1] turn out when `COc1ccc2cc1-c1cc(ccc1O)C[C@H]1c3cc4c(cc3CCN1C)Oc1c(OC)cc3c(c1O4)[C@@H](C2)N(C)CC3` [TILIACORINE] was run?
**A.** 3.1 µg/mL (≈ 5.38 µM)

**Q.** And the MIC [2]?
**A.** 6.2 µg/mL (≈ 10.8 µM)

**Q.** What does the source list for `CC[C@@H](CO)NCCN[C@@H](CC)CO` [ETHAMBUTOL]?
**A.** MIC [3]: ≥ 8 µg/mL; MIC [4]: ≥ 8 µg/mL; MIC [5]: ≤ 2 µg/mL; MIC [6]: ≤ 2 µg/mL; MIC [7]: ≥ 8 µg/mL; MIC [8]: ≥ 8 µg/mL; MIC [9]: ≤ 2 µg/mL

**Q.** Which results are given for `COc1ccc2cc1-c1cc(cc(Br)c1O)C[C@H]1c3cc4c(cc3CCN1C)Oc1c(OC)cc3c(c1O4)[C@H](C2)N(C)CC3`?
**A.** MIC [1]: 3.1 µg/mL (≈ 4.73 µM); MIC [2]: 3.1 µg/mL (≈ 4.73 µM)

**Q.** Which MIC [1] does the source give for `COc1ccc2cc1-c1cc(ccc1O)C[C@@H]1NCCc3cc4c(cc31)Oc1c(c(OC)cc3c1[C@H](C2)N(C)CC3)O4` here?
**A.** 6.2 µg/mL (≈ 11 µM)

**Q.** And the MIC [2]?
**A.** 6.2 µg/mL (≈ 11 µM)

**Q.** Which results are given for `CC1COc2c(N3CCN(C)CC3)c(F)cc3c(=O)c(C(=O)O)cn1c23` (stereo not drawn) [OFLOXACIN]?
**A.** MIC [3]: ≥ 4 µg/mL; MIC [4]: ≤ 2 µg/mL; MIC [5]: ≤ 2 µg/mL; MIC [6]: ≥ 4 µg/mL; MIC [7]: ≤ 2 µg/mL; MIC [8]: ≥ 4 µg/mL; MIC [9]: ≤ 2 µg/mL

**Q.** How did the MIC [3] turn out when `NNC(=O)c1ccncc1` [ISONIAZID] was run?
**A.** ≥ 2 µg/mL

**Q.** What about the MIC [4] of the same compound?
**A.** ≥ 2 µg/mL

**Q.** What about the MIC [5] of the same compound?
**A.** ≥ 2 µg/mL

**Q.** And the MIC [6]?
**A.** ≥ 2 µg/mL

**Q.** And the MIC [7]?
**A.** ≥ 2 µg/mL

**Q.** And the MIC [8]?
**A.** ≥ 2 µg/mL

**Q.** What about the MIC [9] of the same compound?
**A.** ≥ 2 µg/mL

**Q.** Which MIC [3] does the source give for `CO[C@H]1/C=C/O[C@@]2(C)Oc3c(C)c(O)c4c(O)c(c(/C=N/N5CCN(C)CC5)c(O)c4c3C2=O)NC(=O)/C(C)=C\C=C\[C@H](C)[C@H](O)[C@@H](C)[C@@H](O)[C@@H](C)[C@H](OC(C)=O)[C@@H]1C` [RIFAMPIN] here?
**A.** ≥ 2 µg/mL

**Q.** And the MIC [4]?
**A.** ≥ 2 µg/mL

**Q.** What about the MIC [5] of the same compound?
**A.** ≥ 2 µg/mL

**Q.** And the MIC [6]?
**A.** ≥ 2 µg/mL

**Q.** And the MIC [7]?
**A.** ≥ 2 µg/mL

**Q.** And the MIC [8]?
**A.** ≥ 2 µg/mL

**Q.** What about the MIC [9] of the same compound?
**A.** ≥ 2 µg/mL

**Q.** Which MIC [3] does the source give for `CN[C@@H]1[C@H](O[C@H]2[C@H](O[C@H]3[C@H](O)[C@@H](O)[C@H](N=C(N)N)[C@@H](O)[C@@H]3N=C(N)N)O[C@@H](C)[C@]2(O)C=O)O[C@@H](CO)[C@H](O)[C@H]1O` [STREPTOMYCIN] here?
**A.** ≥ 8 µg/mL

**Q.** And the MIC [4]?
**A.** ≤ 2 µg/mL

**Q.** And the MIC [5]?
**A.** ≤ 2 µg/mL

**Q.** And the MIC [6]?
**A.** ≥ 8 µg/mL

**Q.** And the MIC [7]?
**A.** ≥ 8 µg/mL

**Q.** What about the MIC [8] of the same compound?
**A.** ≤ 2 µg/mL

**Q.** What about the MIC [9] of the same compound?
**A.** ≥ 8 µg/mL

**Q.** What does the source list for `COc1ccc2cc1-c1cc(ccc1O)C[C@H]1c3cc4c(cc3CCN1C)Oc1c(OC)cc3c(c1O4)[C@H](C2)N(C)CC3` [TILIACORININE]?
**A.** MIC [1]: 3.1 µg/mL (≈ 5.38 µM); MIC [2]: 6.2 µg/mL (≈ 10.8 µM)
